Source: BindingDB's records for doi:10.1016/j.bmc.2018.03.025 (Xi'An Jiaotong University, 2018)
pIC50: −log10 of the molar value.

Test: Inhibition of EGFR L858R mutant (unknown origin) using poly (Glu, Tyr) as substrate after 40 mins by kinase-glo plus luminescence assay

CN1CCN(c2ccc(Nc3ncc4nc(Sc5ccccc5)n(C5CCCC5)c4n3)cc2)CC1
pIC50: 8.38

CN1CCN(c2ccc(Nc3ncc4nc(Sc5ccccc5)n([C@H]5CC[C@H](O)CC5)c4n3)cc2)CC1
pIC50: 8.62

CN(C)C1CCN(c2ccc(Nc3ncc4nc(Sc5ccccc5)n(C5CCOCC5)c4n3)cc2)CC1
pIC50: 8.72

CN1CCN(c2ccc(Nc3ncc4nc([S+]([O-])c5ccccc5)n(C5CCCC5)c4n3)cc2)CC1 (centres undefined)
pIC50: 8.38

CN(C)CCOc1ccc(Nc2ncc3nc(Sc4cccc(F)c4)n(C4CCOCC4)c3n2)cc1
pIC50: 8.24

CN(C)CCOc1ccc(Nc2ncc3nc(Sc4ccc(F)cc4)n(C4CCOCC4)c3n2)cc1
pIC50: 8.92

CN1CCN(c2ccc(Nc3ncc4nc(Sc5ccccc5)n(C5CCOCC5)c4n3)cc2)CC1
pIC50: 8.70

CN(C)CCOc1ccc(Nc2ncc3nc([S+]([O-])c4ccccc4)n(C4CCOCC4)c3n2)cc1 (centres undefined)
pIC50: 8.59

CN(C)CCOc1ccc(Nc2ncc3nc(Sc4ccccc4)n(C4CCOCC4)c3n2)cc1
pIC50: 8.77
